# Assays:
# [1] = target: T1, soluble epoxide hydrolase (sEH) (Homo sapiens, UniProt P34913); experiment: Enzyme kinetics of sEH inhibition (Lineweaver–Burk and Dixon plots); assay type: biochemical; conditions: for Binding Mode: Lineweaver–Burk plots, PHOME substrate; for Ki: Table 1, Dixon plots, read-out: Binding Mode (ki, M): ki
# T1 construct: purchased Cayman Chemical (Ann Arbor, MI, USA) 10011669
# T1 sequence (P34913 1-555): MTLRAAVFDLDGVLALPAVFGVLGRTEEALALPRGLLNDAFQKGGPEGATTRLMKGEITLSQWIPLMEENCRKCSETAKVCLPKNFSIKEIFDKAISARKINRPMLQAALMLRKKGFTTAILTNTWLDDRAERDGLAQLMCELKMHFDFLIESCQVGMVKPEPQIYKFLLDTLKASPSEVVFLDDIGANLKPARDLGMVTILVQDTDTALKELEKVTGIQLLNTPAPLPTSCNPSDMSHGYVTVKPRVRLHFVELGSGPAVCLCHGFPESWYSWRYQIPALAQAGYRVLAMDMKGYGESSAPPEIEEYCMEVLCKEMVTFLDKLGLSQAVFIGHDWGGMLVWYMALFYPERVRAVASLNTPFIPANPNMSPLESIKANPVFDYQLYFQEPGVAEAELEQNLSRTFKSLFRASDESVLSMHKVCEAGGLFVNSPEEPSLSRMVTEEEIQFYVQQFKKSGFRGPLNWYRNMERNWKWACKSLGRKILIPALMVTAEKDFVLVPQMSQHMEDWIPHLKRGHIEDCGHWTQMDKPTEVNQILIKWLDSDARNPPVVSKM
# Method: Additionally, an enzyme kinetic study was performed to identify how the three compounds bound to this enzyme. The initial velocity (v0) of inhibitor was determined as the rate of enzymatic conversion from substrate to product depending on the concentration of inhibitor at the start of the enzymatic reaction. The results were visualized using classic double-reciprocal Lineweaver–Burk plots. Figure 2B–D indicates one 1/Km and four 1/Vmax values for the three inhibitors, which inhibited the catalytic reaction of sEH with PHOME in a noncompetitive manner.
# [2] = target: T1, soluble epoxide hydrolase (sEH); experiment: sEH enzymatic assay (fluorometric, PHOME substrate); assay type: biochemical; conditions: 37 °C, pH 7.0, tested three times, read-out: Inhibition of Compounds on sEH IC50
# Method: The sEH assay was performed as described previously, with minor modifications. To determine inhibitory activity, 130 μL of the sEH in 25 mM bis-Tris-HCl buffer (pH 7.0) containing 0.1% BSA was added to either 20 μL of inhibitor dissolved in MeOH. Next, 20 μL of PHOME was mixed to each mixture, which was then reacted at 37 °C for sEH hydrolysis. Product formation was monitored fluorometrically at 330 nm excitation and 465 nm emission for approximately 60 min.
# sEH inhibition activity was calculated using sEH Inhibition rate (%) = [(ΔC − ΔI)/ΔC] × 100(1) where ΔC and ΔI are the difference of the solvent and compound intensities, respectively, after about one hour and y = y0 + (a × x/b + x)(2) where y0 is the minimum value along the y-axis, a is the difference between the maximum and minimum values, and b is the x value at 50 percent of the “a” value.
Binding Mode [1],Ki [1],IC50 [2],Structure (SMILES)
Non-competitive,4.68e-05 M,33.4 ± 0.8 µM,"COc1ccc2cc3[n+](cc2c1OC)CCc1cc2c(cc1-3)OCO2 [Compound 2, berberine]"
Non-competitive,2.69e-05 M,29.6 ± 0.5 µM,"COc1cc2c(cc1OC)-c1cc3ccc(OC)c(OC)c3c[n+]1CC2 [Compound 1, palmatine]"

Structure (SMILES),Binding Mode [1],Ki [1],IC50 [2]
"COc1cc2c(cc1O)CC[n+]1cc3c(OC)c(OC)ccc3cc1-2 [Compound 3, jatrorrhizine]",Non-competitive,4.45e-05 M,27.3 ± 0.4 µM

# Reference: article PMC9498296, “Inhibitory Activity of Quaternary Isoquinoline Alkaloids on Soluble Epoxide Hydrolase” (Current Issues in Molecular Biology, 2022)
